Test results published in ChEMBL document CHEMBL5512619, “Anticancer mechanism of coumarin-based derivatives” (Eur J Med Chem, 2024).

Key:
[1] = biological target: T1, Vascular endothelial growth factor receptor 2 (Homo sapiens, UniProt P35968); test: Inhibition of human VEGFR2
HCT-116 [2] = test: cells; conditions: Homo sapiens, HCT-116, 72 h
Description: Antiproliferative activity against human HCT-116 cells measured after 72 hrs by SRB method

HeLa [3] = test: Antiproliferative activity against human HeLa cells measured after 72 hrs by SRB method; type: functional, cell-based
HepG2 [4] = test: Antiproliferative activity against human HepG2 cells measured after 72 hrs by SRB method; type: functional, cell-based; conditions: HepG2, 72 h
MCF7 [5] = test: Antiproliferative activity against human MCF7 cells measured after 72 hrs by SRB method; type: functional, cell-based; conditions: MCF7, 72 h
HepG2 [6] = test: Cytotoxicity against human HepG2 cells incubated for 72 hrs by MTT assay; type: functional, cell-based; conditions: HepG2, 72 h
[7] = biological target: Epidermal growth factor receptor (Homo sapiens, UniProt P00533); test: Inhibition of EGFR (unknown origin)
[8] = biological target: Receptor tyrosine-protein kinase erbB-2 (Homo sapiens, UniProt P04626); test: Inhibition of HER2 (unknown origin)
[9] = Cytotoxicity against human Lu1 cells incubated for 72 hrs by MTT assay; type: functional, cell-based; conditions: Lu1, 72 h
HeLa [10] = test: Cytotoxicity against human HeLa cells incubated for 72 hrs by MTT assay; type: functional, cell-based
HeLa [11] = test: Antiproliferative activity against human HeLa cells; type: functional, cell-based
MDA-MB-231 [12] = test: Antiproliferative activity against human MDA-MB-231 cells incubated for 96 hrs by MTT assay; conditions: MDA-MB-231, 96 h
T98G = test: Induction of apoptosis in human T98G cells relative to control; type: functional
Tubulin = test: Inhibition of tubulin polymerization (unknown origin) by spectrophotometric method; type: protein-complex assay, Homo sapiens
MCF7 [13] = test: Cytotoxicity against human MCF7 cells by MTT assay; type: functional, cell-based
MDA-MB-231 [14] = test: Cytotoxicity against human MDA-MB-231 cells by MTT assay; type: functional, cell-based
Albumin = Albumin (Homo sapiens, UniProt P02768); test: Reversible binding affinity to human serum albumin
MCF7 [15] = test: Cytotoxicity against human MCF-7 cells relative to control; type: functional
[16] = Inhibition of DNA topoisomerase II (unknown origin)
[17] = biological target: T1, Vascular endothelial growth factor receptor 2; test: Inhibition of VEGFR2 (unknown origin)
MCF7 [18] = test: Cytotoxicity against human MCF-7 cells; type: functional, cell-based
MCF7 [19] = test: Antiproliferative activity against human MCF7 cells measured after 72 hrs by MTT assay; type: functional, cell-based; conditions: MCF7, 72 h
HCT-116 [20] = test: Antiproliferative activity against human HCT-116 cells measured after 24 hrs by MTT assay; type: functional, cell-based; conditions: HCT-116, 24 h
A549 [21] = test: Antiproliferative activity against human A549 cells measured after 24 hrs by MTT assay; type: functional, cell-based; conditions: A549, 24 h
HepG2 [22] = test: Antiproliferative activity against human HepG2 cells measured after 24 hrs by MTT assay; type: functional, cell-based; conditions: HepG2, 24 h
SK-OV-3 = test: Antiproliferative activity against human SK-OV-3 cells measured after 21 hrs by MTT assay; type: functional, cell-based; conditions: SK-OV-3, 21 h
Carbonic anhydrase 2 [23] = biological target: T2, Carbonic anhydrase 2 (Homo sapiens, UniProt P00918); test: Binding affinity to human CA2 assessed as inhibition constant incubated for 6 hrs by phenol red dye based stopped flow CO2 hydration assay
Carbonic anhydrase 1 [24] = biological target: T3, Carbonic anhydrase 1 (Homo sapiens, UniProt P00915); test: Binding affinity to human CA1 assessed as inhibition constant incubated for 6 hrs by phenol red dye based stopped flow CO2 hydration assay
Carbonic anhydrase 12 = Carbonic anhydrase 12 (Homo sapiens, UniProt O43570); test: Binding affinity to human CA12 assessed as inhibition constant incubated for 10 mins by phenol red dye based stopped flow CO2 hydration assay
Carbonic anhydrase 1 [25] = biological target: T3, Carbonic anhydrase 1; test: Binding affinity to human CA1 assessed as inhibition constant incubated for 10 mins by phenol red dye based stopped flow CO2 hydration assay
Carbonic anhydrase 2 [26] = biological target: T2, Carbonic anhydrase 2; test: Binding affinity to human CA2 assessed as inhibition constant incubated for 10 mins by phenol red dye based stopped flow CO2 hydration assay
Carbonic anhydrase 9 = Carbonic anhydrase 9 (Homo sapiens, UniProt Q16790); test: Binding affinity to human CA9 assessed as inhibition constant incubated for 10 mins by phenol red dye based stopped flow CO2 hydration assay
CCRF-CEM = test: Antiproliferative activity against human CCRF-CEM cells assessed as reduction in cell viability measured after 24 hrs by MTT assay relative to control; type: functional; conditions: pooled result: one value given for 6 cell lines, strains, targets or settings
A549 [27] = test: Antiproliferative activity against human A549 cells incubated for 48 hrs by MTT assay; type: functional, cell-based; conditions: A549, 48 h
HeLa [28] = test: Antiproliferative activity against human HeLa cells incubated for 48 hrs by MTT assay; type: functional, cell-based

T1 sequence (P35968 whole entry): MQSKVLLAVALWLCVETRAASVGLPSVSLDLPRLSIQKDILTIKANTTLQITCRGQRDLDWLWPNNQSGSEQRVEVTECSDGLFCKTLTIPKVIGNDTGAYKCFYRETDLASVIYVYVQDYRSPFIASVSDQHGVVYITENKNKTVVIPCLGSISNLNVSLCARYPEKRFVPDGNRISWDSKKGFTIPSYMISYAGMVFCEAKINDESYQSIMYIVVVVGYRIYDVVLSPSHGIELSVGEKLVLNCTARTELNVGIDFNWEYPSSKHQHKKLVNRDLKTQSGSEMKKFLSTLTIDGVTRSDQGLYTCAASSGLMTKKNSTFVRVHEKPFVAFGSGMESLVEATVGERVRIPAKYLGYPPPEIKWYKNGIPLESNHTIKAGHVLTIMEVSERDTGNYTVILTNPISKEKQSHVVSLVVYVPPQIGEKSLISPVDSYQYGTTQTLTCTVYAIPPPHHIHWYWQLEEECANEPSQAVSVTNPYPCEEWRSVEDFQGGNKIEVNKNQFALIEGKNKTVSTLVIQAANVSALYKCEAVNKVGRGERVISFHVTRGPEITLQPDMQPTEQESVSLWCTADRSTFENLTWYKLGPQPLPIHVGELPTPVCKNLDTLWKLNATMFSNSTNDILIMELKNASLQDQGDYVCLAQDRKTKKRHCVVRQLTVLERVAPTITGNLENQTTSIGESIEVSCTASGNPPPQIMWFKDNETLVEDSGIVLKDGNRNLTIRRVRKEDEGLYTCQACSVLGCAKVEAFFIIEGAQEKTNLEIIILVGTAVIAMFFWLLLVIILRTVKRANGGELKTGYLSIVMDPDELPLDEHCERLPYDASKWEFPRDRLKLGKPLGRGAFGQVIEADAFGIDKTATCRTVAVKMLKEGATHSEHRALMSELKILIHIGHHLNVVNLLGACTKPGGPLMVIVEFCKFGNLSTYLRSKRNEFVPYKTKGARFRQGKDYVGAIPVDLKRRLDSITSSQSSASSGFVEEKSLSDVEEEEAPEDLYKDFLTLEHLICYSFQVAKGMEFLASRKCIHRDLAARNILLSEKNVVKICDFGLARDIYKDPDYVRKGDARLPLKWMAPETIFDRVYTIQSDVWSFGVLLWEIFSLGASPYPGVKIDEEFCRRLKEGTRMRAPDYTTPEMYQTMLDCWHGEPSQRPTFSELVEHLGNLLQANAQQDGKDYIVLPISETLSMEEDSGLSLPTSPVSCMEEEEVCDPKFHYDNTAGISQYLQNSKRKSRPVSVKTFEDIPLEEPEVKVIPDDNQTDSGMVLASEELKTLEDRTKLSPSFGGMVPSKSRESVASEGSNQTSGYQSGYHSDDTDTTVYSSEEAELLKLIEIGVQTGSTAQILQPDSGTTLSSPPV
Sequence of Albumin (P02768 whole entry): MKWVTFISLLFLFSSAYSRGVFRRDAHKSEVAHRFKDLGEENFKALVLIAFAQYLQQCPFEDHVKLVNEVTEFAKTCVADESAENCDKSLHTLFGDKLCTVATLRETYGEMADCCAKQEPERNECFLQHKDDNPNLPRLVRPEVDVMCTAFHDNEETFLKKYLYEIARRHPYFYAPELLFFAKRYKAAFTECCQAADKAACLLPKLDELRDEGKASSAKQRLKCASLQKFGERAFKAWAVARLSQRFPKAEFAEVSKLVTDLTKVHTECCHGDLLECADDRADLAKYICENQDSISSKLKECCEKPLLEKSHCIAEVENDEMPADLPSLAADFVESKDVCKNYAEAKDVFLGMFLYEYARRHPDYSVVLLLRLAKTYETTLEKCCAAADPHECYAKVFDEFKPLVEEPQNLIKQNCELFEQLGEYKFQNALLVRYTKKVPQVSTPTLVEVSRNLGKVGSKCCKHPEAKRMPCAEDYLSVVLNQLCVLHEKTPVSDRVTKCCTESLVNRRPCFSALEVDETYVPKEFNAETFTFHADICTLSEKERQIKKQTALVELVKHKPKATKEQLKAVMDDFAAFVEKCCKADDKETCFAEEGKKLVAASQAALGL
T3 sequence (P00915 whole entry): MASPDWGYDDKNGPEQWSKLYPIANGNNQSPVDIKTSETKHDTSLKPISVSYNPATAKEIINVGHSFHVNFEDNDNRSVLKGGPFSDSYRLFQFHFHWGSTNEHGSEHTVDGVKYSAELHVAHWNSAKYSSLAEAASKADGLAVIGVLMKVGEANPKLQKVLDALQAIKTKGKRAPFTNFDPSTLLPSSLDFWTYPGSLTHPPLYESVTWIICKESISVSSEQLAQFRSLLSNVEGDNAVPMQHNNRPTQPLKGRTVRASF
Sequence of Epidermal growth factor receptor (P00533 whole entry): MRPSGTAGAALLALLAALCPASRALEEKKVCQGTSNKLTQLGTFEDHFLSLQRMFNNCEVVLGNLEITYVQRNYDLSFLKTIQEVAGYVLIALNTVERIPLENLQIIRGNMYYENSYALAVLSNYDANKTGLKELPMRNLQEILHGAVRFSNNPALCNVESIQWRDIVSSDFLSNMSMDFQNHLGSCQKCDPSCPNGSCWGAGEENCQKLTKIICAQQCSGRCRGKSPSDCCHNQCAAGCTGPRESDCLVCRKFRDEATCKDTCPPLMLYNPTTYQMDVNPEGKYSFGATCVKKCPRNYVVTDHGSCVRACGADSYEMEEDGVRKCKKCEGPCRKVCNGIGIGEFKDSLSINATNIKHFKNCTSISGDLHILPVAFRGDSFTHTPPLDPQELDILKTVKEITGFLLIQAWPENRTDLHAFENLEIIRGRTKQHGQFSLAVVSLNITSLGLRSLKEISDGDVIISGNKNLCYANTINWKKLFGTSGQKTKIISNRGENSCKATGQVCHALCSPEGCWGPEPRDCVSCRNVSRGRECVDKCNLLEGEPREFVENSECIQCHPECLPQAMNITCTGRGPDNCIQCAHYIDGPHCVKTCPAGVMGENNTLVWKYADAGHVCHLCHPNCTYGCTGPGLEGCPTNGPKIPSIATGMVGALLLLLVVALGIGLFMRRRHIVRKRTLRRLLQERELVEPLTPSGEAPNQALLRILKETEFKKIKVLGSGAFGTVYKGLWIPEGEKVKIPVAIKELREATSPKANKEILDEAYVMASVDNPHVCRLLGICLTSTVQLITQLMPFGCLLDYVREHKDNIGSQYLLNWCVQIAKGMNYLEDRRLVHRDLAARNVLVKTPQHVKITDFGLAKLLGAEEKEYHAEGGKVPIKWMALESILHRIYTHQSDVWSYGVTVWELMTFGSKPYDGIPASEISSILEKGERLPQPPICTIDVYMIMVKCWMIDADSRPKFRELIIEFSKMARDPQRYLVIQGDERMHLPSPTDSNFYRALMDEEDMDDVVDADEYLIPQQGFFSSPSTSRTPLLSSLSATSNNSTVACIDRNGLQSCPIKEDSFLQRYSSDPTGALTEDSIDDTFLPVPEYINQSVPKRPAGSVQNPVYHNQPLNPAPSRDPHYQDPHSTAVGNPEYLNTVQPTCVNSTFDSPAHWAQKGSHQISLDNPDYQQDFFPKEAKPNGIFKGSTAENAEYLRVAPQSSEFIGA
Sequence of Receptor tyrosine-protein kinase erbB-2 (P04626 whole entry): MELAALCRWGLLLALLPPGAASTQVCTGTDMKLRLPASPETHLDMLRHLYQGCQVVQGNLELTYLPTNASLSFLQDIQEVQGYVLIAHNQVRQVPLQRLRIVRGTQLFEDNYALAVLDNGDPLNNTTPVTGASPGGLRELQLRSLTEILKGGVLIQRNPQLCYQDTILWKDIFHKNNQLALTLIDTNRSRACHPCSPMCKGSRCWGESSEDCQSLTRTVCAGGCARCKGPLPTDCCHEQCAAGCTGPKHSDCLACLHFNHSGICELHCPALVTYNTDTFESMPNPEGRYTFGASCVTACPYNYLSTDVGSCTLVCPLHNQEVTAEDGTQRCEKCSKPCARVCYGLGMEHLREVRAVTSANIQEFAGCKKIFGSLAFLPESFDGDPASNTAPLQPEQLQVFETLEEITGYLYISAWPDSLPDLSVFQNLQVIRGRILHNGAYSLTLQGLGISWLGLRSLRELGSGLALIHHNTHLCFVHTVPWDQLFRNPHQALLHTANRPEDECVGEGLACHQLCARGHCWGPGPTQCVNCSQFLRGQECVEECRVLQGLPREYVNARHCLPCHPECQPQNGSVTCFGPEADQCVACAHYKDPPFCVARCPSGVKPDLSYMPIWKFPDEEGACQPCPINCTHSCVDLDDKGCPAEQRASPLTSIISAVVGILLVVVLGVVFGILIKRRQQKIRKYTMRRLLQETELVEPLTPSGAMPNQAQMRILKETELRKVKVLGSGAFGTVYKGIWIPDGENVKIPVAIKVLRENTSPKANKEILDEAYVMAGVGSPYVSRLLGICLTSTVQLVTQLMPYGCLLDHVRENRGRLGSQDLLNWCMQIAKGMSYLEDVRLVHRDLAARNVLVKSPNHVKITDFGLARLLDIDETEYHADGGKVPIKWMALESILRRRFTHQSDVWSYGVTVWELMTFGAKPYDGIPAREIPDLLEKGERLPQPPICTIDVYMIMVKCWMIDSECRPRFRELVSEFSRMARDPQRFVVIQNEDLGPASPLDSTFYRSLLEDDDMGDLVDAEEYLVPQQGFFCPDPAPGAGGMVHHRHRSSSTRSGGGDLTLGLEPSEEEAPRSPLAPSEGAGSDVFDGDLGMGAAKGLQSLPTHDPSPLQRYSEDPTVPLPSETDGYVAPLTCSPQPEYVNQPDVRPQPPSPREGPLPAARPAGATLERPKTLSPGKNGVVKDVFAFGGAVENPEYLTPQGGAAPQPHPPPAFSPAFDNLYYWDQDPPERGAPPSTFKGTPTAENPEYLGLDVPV
Sequence of Carbonic anhydrase 12 (O43570 whole entry): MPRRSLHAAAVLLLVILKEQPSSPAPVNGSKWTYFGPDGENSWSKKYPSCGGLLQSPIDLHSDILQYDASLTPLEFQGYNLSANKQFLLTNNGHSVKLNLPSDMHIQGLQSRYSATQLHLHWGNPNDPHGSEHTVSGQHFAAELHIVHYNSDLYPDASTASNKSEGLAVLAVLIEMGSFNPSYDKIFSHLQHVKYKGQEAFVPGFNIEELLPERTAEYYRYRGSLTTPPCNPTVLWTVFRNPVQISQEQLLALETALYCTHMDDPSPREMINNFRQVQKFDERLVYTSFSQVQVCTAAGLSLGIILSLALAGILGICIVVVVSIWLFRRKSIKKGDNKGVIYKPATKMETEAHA

Cc1nc(N2N=C(c3cc4ccccc4oc3=O)CC2c2ccc(N(C)C)cc2)sc1/N=N/c1ccc(Cl)cc1 (centres undefined)
IC50 [1]: 0.034 µM

Cc1c2c3c(ccc(C)c3oc1=O)[C@](C)(O)CO2
IC50 (HCT-116 [2]): 3.95 µM
IC50 (HeLa [3]): 3.95 µM
IC50 (HepG2 [4]): 3.95 µM
IC50 (MCF7 [5]): 3.95 µM

CCCCOc1ccc2oc(=O)cc(C3SC(N(C(C)=O)[C@@H]4O[C@H](COC(C)=O)[C@@H](OC(C)=O)[C@H](OC(C)=O)[C@H]4OC(C)=O)=NN3C(C)=O)c2c1 (some centres undefined)
IC50 (HepG2 [6]): 1.18 µM
IC50 [7]: 0.22 µM
IC50 [8]: 0.13 µM
IC50 [9]: 1.18 µM
IC50 (HeLa [10]): 1.18 µM

Cc1c(C(C)C)c(=O)oc2cc(O)cc(O)c12
IC50 (HeLa [11]): 8 µM

O=c1cc(O)c2ccccc2o1 [4-HYDROXYCOUMARINS]
IC50 (MDA-MB-231 [12]): > 100 µM
Activity (T98G): 15%

CN(C)c1ccc(C2CC(c3c(O)c4ccccc4oc3=O)=NN2c2nc(-c3ccccc3)c(/N=N/c3ccc(Cl)cc3)s2)cc1 (centres undefined)
IC50 [1]: 0.034 µM

COc1ccc2c3c(c(=O)oc2c1)CC(C(C)(O)CC/C=C(\C)CCC=C(C)C)O3 (centres undefined)
IC50 (Tubulin): 9.2 µM
IC50 (MCF7 [13]): 19.8 µM
IC50 (MDA-MB-231 [14]): 15.6 µM

Cc1cc(=O)oc2cc(NCc3cc(I)cc(I)c3O)ccc12
Kd (Albumin): 0.03 µM

COC(=O)C(Cc1ccc(O)cc1)NC(=O)c1cc2ccccc2oc1=O (centres undefined)
Activity (MCF7 [15]): 97.82%
IC50 [16]: 8.6 µM
IC50 [17]: 34.2 µM
IC50 (MCF7 [18]): 4.98 µM

O=c1ccc2cc(O)c(O)cc2o1 [ESCULETIN]
IC50 (MCF7 [19]): 193 µM

COc1ccc(-c2cc(-c3cc4ccccc4oc3=O)nc3nc(C)[nH]c(=O)c23)cc1
IC50 (HCT-116 [20]): 1.1 µM
IC50 (A549 [21]): 1.1 µM
IC50 (HepG2 [22]): 1.1 µM

O=c1ccc2ccc(O)c(O)c2o1 [DAPHNETIN]
IC50 (MCF7 [19]): 73 µM

CC(C)(O[C@@H]1O[C@H](CO)[C@@H](O)[C@H](O)[C@H]1O)[C@@H]1Cc2cc3ccc(=O)oc3cc2O1
IC50 (SK-OV-3): > 100 µM

Cc1cc(=O)oc2cc(OCc3cn(CCCCCCCCCCOc4ccc5ccc(=O)oc5c4)nn3)ccc12
Ki (Carbonic anhydrase 2 [23]): > 10 µM
Ki (Carbonic anhydrase 1 [24]): > 10 µM

O=C(Nc1ccc2c(c1)C=CS(=O)(=O)O2)c1ccc(F)c(S(=O)(=O)N2CCCCC2)c1
Ki (Carbonic anhydrase 12): 0.0306 µM
Ki (Carbonic anhydrase 1 [25]): 0.0994 µM
Ki (Carbonic anhydrase 2 [26]): 0.0994 µM
Ki (Carbonic anhydrase 9): 0.0306 µM

COc1cccc2c1C(=O)c1c(O)c3c(c(O)c1C2=O)C[C@@](O)(C(=O)CO)C[C@@H]3O[C@H]1C[C@H](N)[C@H](O)[C@H](C)O1 [DOXORUBICIN]
IC50 (MDA-MB-231 [12]): 0.6 µM
IC50 [16]: 9.65 µM

CCCCCOc1ccc2oc(=O)cc(C3SC(N(C(C)=O)[C@@H]4O[C@H](COC(C)=O)[C@@H](OC(C)=O)[C@H](OC(C)=O)[C@H]4OC(C)=O)=NN3C(C)=O)c2c1 (some centres undefined)
IC50 (HepG2 [6]): 1.18 µM
IC50 [7]: 0.22 µM
IC50 [8]: 0.13 µM
IC50 [9]: 1.18 µM
IC50 (HeLa [10]): 1.18 µM

O=C(COc1ccccc1)Nc1ccc2oc(=O)ccc2c1
Activity (CCRF-CEM): 61%

COc1cc2oc(=O)ccc2cc1O[C@@H]1O[C@H](CO)[C@@H](O)[C@H](O)[C@H]1O
IC50 (SK-OV-3): > 100 µM

COc1ccc(-c2cc(-c3cc4ccccc4oc3=O)nc(N)c2C(N)=O)cc1
IC50 (HCT-116 [20]): 1.1 µM
IC50 (A549 [21]): 1.1 µM
IC50 (HepG2 [22]): 1.1 µM

Cc1cc(=O)oc2cc(NCc3cc(Cl)cc(Cl)c3O)ccc12
Kd (Albumin): 0.03 µM

COc1ccc2oc(=O)cc(COc3c(C)occc3=O)c2c1
IC50 (A549 [27]): 2.47 µM
IC50 (HeLa [28]): 2.47 µM
